Test results from BindingDB's records for doi:10.1021/jm00080a021 (Notre-Dame Hospital Research, 1992).

Target: Ribonucleoside-diphosphate reductase large subunit R1 (Herpes simplex virus type 1)
Assay: Inhibitory concentration against HSV-1 ribonucleotide reductase R1 protein binding

Compound | IC50 [µM]
CC[C@H](C)[C@H](NC(=O)[C@@H](NC(=O)[C@@H](NC(=O)CNC(=O)[C@H](C)NC(=O)[C@H](Cc1ccc(O)cc1)NC(C)=O)[C@@H](C)O)C(C)C)C(=O)N[C@@H](CC(N)=O)C(=O)N[C@@H](CC(N)=O)C(=O)N[C@@H](CC(C)C)C(=O)O | 640
CC(=O)N[C@@H](Cc1ccc(O)cc1)C(=O)N[C@@H](C)C(=O)NCC(=O)N[C@H](C(=O)N[C@H](C(=O)N[C@@H](C(=O)N[C@@H](CC(N)=O)C(=O)N[C@@H](CC(=O)O)C(=O)N[C@@H](CC(C)C)C(=O)O)C(C)C)C(C)C)[C@@H](C)O [2-{2-[2-(2-{2-[2-(2-{2-[2-Acetylamino-3-(4-hydroxy-phenyl)-propionylamino]-propionylamino}-acetylamino)-3-hydroxy-butyrylamino]-3-methyl-butyrylamino}-3-methyl-butyrylamino)-3-carbamoyl-propionylamino]-3-carboxy-propionylamino}-4-methyl-pentanoicacid] | > 1000
CC[C@H](C)[C@H](NC(=O)[C@@H](NC(=O)[C@@H](NC(=O)CNC(=O)[C@H](C)NC(=O)[C@H](Cc1ccc(O)cc1)NC(C)=O)[C@@H](C)O)C(C)C)C(=O)N[C@@H](CC(N)=O)C(=O)N[C@@H](CCC(=O)O)C(=O)N[C@@H](CC(C)C)C(=O)O [2-{2-[2-(2-{2-[2-(2-{2-[2-Acetylamino-3-(4-hydroxy-phenyl)-propionylamino]-propionylamino}-acetylamino)-3-hydroxy-butyrylamino]-3-methyl-butyrylamino}-3-methyl-pentanoylamino)-3-carbamoyl-propionylamino]-4-carboxy-butyrylamino}-4-methyl-pentanoicacid] | 650
CC[C@H](C)[C@H](NC(=O)[C@@H](NC(=O)[C@@H](NC(=O)CNC(=O)[C@H](C)NC(=O)[C@H](Cc1ccc(O)cc1)NC(C)=O)[C@@H](C)O)C(C)C)C(=O)N[C@@H](CO)C(=O)N[C@@H](CC(=O)O)C(=O)N[C@@H](CC(C)C)C(=O)O [2-{2-[2-(2-{2-[2-(2-{2-[2-Acetylamino-3-(4-hydroxy-phenyl)-propionylamino]-propionylamino}-acetylamino)-3-hydroxy-butyrylamino]-3-methyl-butyrylamino}-3-methyl-pentanoylamino)-3-hydroxy-propionylamino]-3-carboxy-propionylamino}-4-methyl-pentanoicacid] | 395
Ac-YAGTVINCL-OH [2-{2-[2-(2-{2-[2-(2-{2-[2-Acetylamino-3-(4-hydroxy-phenyl)-propionylamino]-propionylamino}-acetylamino)-3-hydroxy-butyrylamino]-3-methyl-butyrylamino}-3-methyl-pentanoylamino)-3-carbamoyl-propionylamino]-3-mercapto-propionylamino}-4-methyl-pentanoic acid] | > 1000
Ac-YAGTVINSL-OH [2-{2-[2-(2-{2-[2-(2-{2-[2-Acetylamino-3-(4-hydroxy-phenyl)-propionylamino]-propionylamino}-acetylamino)-3-hydroxy-butyrylamino]-3-methyl-butyrylamino}-3-methyl-pentanoylamino)-3-carbamoyl-propionylamino]-3-hydroxy-propionylamino}-4-methyl-pentanoic acid] | > 1000
